Source: ChEMBL document CHEMBL1201862, “PubChem BioAssay data set” (2004)
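Compound exposure: 48 hours, 5 concentrations, 96-well plates. The concentration for 50% growth inhibition is given as GI50.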 Activity calls are given as the source filed them. No stated cut-off is given here; in the data, active = GI50 up to about 1.1 µM and inactive = higher.

Experiments:
Assay in all cases: NCI anticancer screen, dose series, 48 h
BT-549 = test system: BT-549
MCF7 = test system: MCF7
MDA-N = test system: MDA-N
T47D = test system: T47D

Structure (SMILES) | GI50 (BT-549) | GI50 (MCF7) | GI50 (MDA-N) | GI50 (T47D)
Sc1ncnc2c1ncn2Cc1ccco1 | > 100 µM (inactive) | > 100 µM (inactive) | > 100 µM (inactive) | > 100 µM (inactive)
c1ccc(SC(Sc2ccccc2)c2ccc3c(c2)OCO3)cc1 | > 100 µM (inactive) |  | 88.9 µM (inactive) | > 100 µM (inactive)
N#C/C(=C1/c2cc([N+](=O)[O-])ccc2-c2c1cc([N+](=O)[O-])cc2[N+](=O)[O-])N1CCCCC1 | > 100 µM (inactive) | 19 µM (inactive) | > 100 µM (inactive) | > 100 µM (inactive)
Cc1cc2nc3c(C#N)c4c(c(Nc5ccc(Cl)cc5)n3c2cc1C)CCC4 | 23.8 µM (inactive) |  |  | 30.5 µM (inactive)
C/C(Cl)=N\OC(=O)Nc1ccc(C)cc1 |  | 11.9 µM (inactive) | 16.3 µM (inactive) | 16 µM (inactive)
OC1C2CN3CCN(C2)CC1(c1ccccc1)C3 (centres undefined) | > 100 µM (inactive) | > 100 µM (inactive) | > 100 µM (inactive) | 
CCCNC(=O)OCc1c(COC(=O)NCCC)c(-c2ccc(Cl)c(Cl)c2)n2c1CCC2 | 4.07 µM (inactive) | 5.75 µM (inactive) |  | 11.4 µM (inactive)
N#Cc1nc(COCCOCc2ccc(F)cc2)oc1N | > 100 µM (inactive) | > 100 µM (inactive) |  | > 100 µM (inactive)
Cc1cc(C)n(-c2nc3ccccc3c(=O)n2-c2ccccc2)n1 |  | > 100 µM (inactive) | > 100 µM (inactive) | > 100 µM (inactive)
COc1ccc(C(SCCO)(c2ccccc2)c2ccc(OC)cc2)cc1 | 19.5 µM (inactive) | 5.36 µM (inactive) | 5.32 µM (inactive) | 11.9 µM (inactive)
CC(C)(C)OC(=O)CC(NC(=O)OC(C)(C)C)C(=O)NC(C(=O)O)C(O)c1ccccc1 (centres undefined) | > 100 µM (inactive) | 37.6 µM (inactive) | > 100 µM (inactive) | 80.9 µM (inactive)
Cc1ccc2c(c1)C(=O)C1(C2)Cc2ccc(C)cc2C1=O |  | > 100 µM (inactive) | > 100 µM (inactive) | > 100 µM (inactive)
O=S(=O)(O)c1cc(/N=N/c2c(O)ccc3ccccc23)cc2c(S(=O)(=O)O)cccc12 | > 100 µM (inactive) | > 100 µM (inactive) |  | 
CCCCCCCCCCCCCCCCCc1nc(Cl)nc(Cl)c1Cl |  | > 100 µM (inactive) | > 100 µM (inactive) | > 100 µM (inactive)
O=S(=O)(N/N=C1\CC2CCC1C2)c1ccccc1 (centres undefined) | > 100 µM (inactive) | > 100 µM (inactive) | > 100 µM (inactive) | 
c1ccc(-c2ccc(-c3ccc(C4=NCCN4)cc3)o2)cc1 | 6.28 µM (inactive) | 1.91 µM (inactive) |  | 2.65 µM (inactive)
COC(=O)/C=C/c1ccc2c(c1)CC1(Cc3ccccc3C1)C2 |  | > 100 µM (inactive) | 87.5 µM (inactive) | > 100 µM (inactive)
COc1cc(OC)cc(Oc2nc3ccc(C(F)(F)F)cc3nc2-c2ccccc2)c1 | > 100 µM (inactive) | > 100 µM (inactive) | > 100 µM (inactive) | 28.4 µM (inactive)
Cc1nc2ccc(F)cc2c2c1CCO2 | 80 µM (inactive) |  | 27.7 µM (inactive) | 52.6 µM (inactive)
CN(c1ccc(Cl)cc1)S(=O)(=O)c1ccc([N+](=O)[O-])cc1 | > 100 µM (inactive) | > 100 µM (inactive) | > 100 µM (inactive) | > 100 µM (inactive)
COc1ccc(CCc2ccc3c(c2)OCO3)cc1 | 62.5 µM (inactive) | 35.8 µM (inactive) | 28.9 µM (inactive) | 
CC(=NNC(=S)Nc1ccccc1C)c1cccc(C(C)=NNC(=S)Nc2ccccc2C)n1 |  | 65.2 µM (inactive) | > 100 µM (inactive) | > 100 µM (inactive)
COc1ccc(C2=C(OC(C)=O)c3cccn3-c3ccccc3S2)cc1 |  | 3.48 µM (inactive) | 0.34 µM (active) | 5.9 µM (inactive)
CC(=O)OCCOCn1cnc2c(Cl)nc(Cl)nc21 | 18.7 µM (inactive) | > 10 µM (inactive) | 17.4 µM (inactive) | 10 µM (inactive)
CC(=O)Oc1cc(/C=C/c2ccc(O)cc2)cc(OC(C)=O)c1 |  | 40 µM (inactive) |  | 51.3 µM (inactive)
